One data set can be described thus: MTT cytotoxicity assay. The following applies: human. As to the method:
PC3 cells were seeded into 96-well plates (3000 cells/well) and allowed to attach overnight. Cells were then incubated in media containing 0.3-100 μM inhibitors for 72 h. 3-(4,5-Dimethylthiazol-2-yl)-2,5-diphenyltetrazolium bromide methyl thiazolyl tetrazolium (MTT) solution was prepared at 2 mg/ml concentration in PBS, sterilized by filtering through a 0.2 μm filter, and wrapped in foil to protect from light. 50 μl MTT solution was added to each well and incubated for 4 h at 37°C. Then, media was removed and 200 μl DMSO was added to each well. The plate was mixed for 5 min and the optical density was determined at 570 nm.
PC3 cells were seeded into 96-well plates (3000 cells/well) and were then incubated in media containing 0.3-100 μM inhibitors for 72 h. MTT solution was added to each well and incubated for 4 h. Optical density was read at 570 nm to determine cell viability. The EC50 was determined as the mean ± S.E.M. of three independent experiments for each compound.

In another data set the test system is DU145 cells. The experiment in a line: Matrigel invasion assay. The data set is classed as cell-based. The following applies: 10 μM, 22 h. As to the method: DU145 cells (8.0 × 10^4 cells/ml) in RPMI containing 0.1% fetal bovine serum (FBS) were seeded into the top chamber of BioCoat control inserts (pore size 8 μm) or BioCoat Matrigel invasion inserts with Matrigel-coated filters (BD Pharmingen). To stimulate invasion, media in the lower chamber of the insert contained 20% FBS. […] After incubation, noninvasive cells were removed using a cotton swab, and invasive cells were fixed in 100% methanol and stained with 1% crystal violet. After staining, cells were counted under a microscope (200× magnification). The percentage invasion was determined by cell counts in 5 fields of the number of cells that invaded the Matrigel matrix relative to the number of cells that migrated through the control insert.
After 22 hours, noninvasive cells were removed and invasive cells were fixed in 100% methanol, stained in […] crystal violet solution, and photographed. The number of cells that invaded the Matrigel matrix was determined by cell counts in 5 fields relative to the number of cells that migrated through the control insert. The data shown is the mean ± S.E.M. of two independent experiments. Statistical significance versus the control DMSO was determined by unpaired t-test. ***, p < 0.001.

The next data set has as its target T1, PKD1 (Homo sapiens, UniProt Q15139).
T1 sequence (Q15139 1-912): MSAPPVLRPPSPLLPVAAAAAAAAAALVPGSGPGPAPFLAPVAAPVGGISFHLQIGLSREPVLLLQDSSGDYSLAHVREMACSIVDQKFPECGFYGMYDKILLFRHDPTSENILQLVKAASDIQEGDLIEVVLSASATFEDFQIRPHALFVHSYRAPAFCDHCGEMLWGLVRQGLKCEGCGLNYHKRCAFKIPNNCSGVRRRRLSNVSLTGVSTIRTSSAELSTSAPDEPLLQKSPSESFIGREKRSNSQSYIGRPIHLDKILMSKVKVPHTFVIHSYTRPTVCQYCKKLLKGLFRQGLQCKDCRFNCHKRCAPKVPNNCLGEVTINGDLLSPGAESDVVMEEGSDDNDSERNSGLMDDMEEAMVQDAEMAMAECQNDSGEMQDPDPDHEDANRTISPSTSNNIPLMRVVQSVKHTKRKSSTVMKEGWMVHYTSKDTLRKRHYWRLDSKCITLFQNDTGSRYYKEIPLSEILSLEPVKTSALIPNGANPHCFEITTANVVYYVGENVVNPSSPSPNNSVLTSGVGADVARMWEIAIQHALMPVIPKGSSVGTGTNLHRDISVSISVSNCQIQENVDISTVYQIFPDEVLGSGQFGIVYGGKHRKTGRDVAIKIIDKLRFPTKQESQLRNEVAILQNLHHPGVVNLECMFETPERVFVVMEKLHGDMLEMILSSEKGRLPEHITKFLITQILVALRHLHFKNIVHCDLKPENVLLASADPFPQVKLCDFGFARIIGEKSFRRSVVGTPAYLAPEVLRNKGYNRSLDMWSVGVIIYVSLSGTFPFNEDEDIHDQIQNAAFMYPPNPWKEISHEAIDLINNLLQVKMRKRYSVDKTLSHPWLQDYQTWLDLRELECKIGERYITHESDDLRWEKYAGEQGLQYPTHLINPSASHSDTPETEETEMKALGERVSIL
The experiment in a line: In vitro radiometric PKD kinase assay. The class given is biochemical. The following applies: for IC50: radiometric kinase assay, mean ± S.E.M.; for fold greater selectivity toward PKD1: versus PKD2 and PKD3. Set-up: purchased Biomol International. As to the method: In vitro radiometric kinase assays were conducted as previously described. Briefly, 1 μCi [γ-^32P] ATP (PerkinElmer Life Sciences), 70 μM ATP, 50 ng purified recombinant human PKD1 (Biomol International, Plymouth Meeting, PA), PKD2 (SignalChem, Richmond, BC, Canada), or CAMKIIα (Enzo Life Sciences) or 75 ng PKD3 (Enzo Life Sciences), and 2.5 μg syntide-2 (Sigma) in 50 μl kinase buffer containing 50 mM Tris-HCl, pH 7.5, 4 mM MgCl2, and 10 mM β-mercaptoethanol. For the CAMK assay, 0.5 mM CaCl2 and 30 ng/μl calmodulin were pre-incubated for 10 min on ice, and then added to each reaction mixture. The reaction was incubated at 30°C for 10 min, and 25 μl of the reaction mixture was then spotted onto Whatman P81 filter paper (Whatman Inc., Clifton, NJ). The filter papers were washed 3 times in 0.5% phosphoric acid, air-dried, and counted using a Beckman LS6500 multipurpose scintillation counter (Beckman).
The in vitro inhibitory activities of the novel compounds toward PKD were determined using radiometric PKD kinase activity assays. Recombinant human PKD1, -2, or -3 was incubated with the substrate, syntide-2, in the presence of 10 different concentrations of each compound. IC50 values were determined for each compound by plotting percent PKD activity versus compound concentration for each point.
A-E, inhibition of recombinant human PKD1 in vitro. […] A 10-point concentration curve was generated for each compound for IC50 determination. Each IC50 was determined as the mean ± S.E.M. of three independent experiments with triplicate determinations at each concentration in each experiment. Representative graphs are shown.

Consider `O=C1NCCCc2c1oc1ccc(O)cc21` [CID755673, 7-Hydroxy-2,3,4,5-tetrahydro-[1]benzoxolo[2,3-c]azepin-1-one], for which, in “MTT cytotoxicity assay” (PC3 cells), the half-maximal effective concentration (EC50) (as a rule, the concentration giving half of the maximal effect) at 72 h was 320 µM. Besides, the “inhibition of invasion (in words)” value in the data set on DU145 cells was “significantly inhibited invasion”. Besides, the IC50 (commonly the concentration that inhibits the measured activity by half) against PKD1 amounted to 0.182 ± 0.027 µM.
Take `O=C1NCCCSc2c1sc1ccc(O)cc21` [kb-NB165-92]: the EC50 at 72 h in the data set “MTT cytotoxicity assay” amounted to 78.3 µM. In addition, the “inhibition of invasion (in words)” value in the data set on DU145 cells was “levels similar to the parental compound”. The IC50 at PKD1 came out at 0.111 ± 0.006 µM. Further, the “fold reduction of potency for PKD1” value at PKD1 (versus kb-NB142-70) is listed as 2-4 fold.
Consider `O=C1NCCSc2c1sc1ccc(O)c(I)c21` [kb-NB165-31], for which the 50% effective concentration (EC50) at 72 h in the data set “MTT cytotoxicity assay” was found to be 31.9 µM. Further, the “inhibition of invasion (in words)” value with DU145 cells is “levels similar to the parental compound”. This molecule registered an IC50 at PKD1 of 0.114 ± 0.0239 µM.
In turn, `O=C1NCCSc2c1sc1ccc(O)cc21` [kb-NB142-70] showed an EC50 at 72 h in “MTT cytotoxicity assay” (PC3 cells) of 8.03 µM. In addition, the percent invasion in the data set with DU145 cells worked out at 10%. In addition, on PKD1, the “fold greater inhibition of PKD1 than the parental compound CID755673” value is reported as 7 fold, it took 0.0283 ± 0.0023 µM to reach half-maximal inhibition (IC50) and the “fold greater selectivity toward PKD1” value is listed as “about 2 fold”.
`COc1ccc2sc3c(c2c1)SCCNC3=O` [kb-NB165-09] showed an EC50 at 72 h in the data set “MTT cytotoxicity assay” (PC3 cells) of 50 µM. Further, in the data set on DU145 cells, the percent invasion was 10%. Besides, the midpoint of inhibition against PKD1, the IC50, lay at 0.0825 ± 0.0046 µM.
`COc1ccc2sc3c(c2c1)SCCCNC3=O` [kb-NB184-02] came in with an EC50 at 72 h in “MTT cytotoxicity assay” of 33.8 µM. For the same molecule, in the data set on DU145 cells, the “inhibition of invasion (in words)” value is “levels similar to the parental compound”. On PKD1, the IC50 was found to be 0.193 ± 0.0274 µM and the “fold greater selectivity toward PKD1” value was “about 2 fold”.

The values above are taken from article PMC2873968, “Novel protein kinase D inhibitors cause potent arrest in prostate cancer cell growth and motility” (BMC Chemical Biology, 2010).
